Results as given in US20250213707A1, “COMPOUND FOR INCREASING EFFICACY OF ONCOLYTIC VIRUSES” (ABLEVIA BIOTECH GMBH, priority 2022, published 2025).
Ends that are not written are not given here.

How the values were obtained:
[1] = test system: polyclonal antibody ab6982; experiment: Epitope mapping of polyclonal antibody ab6982 against cyclic peptides of Ad5 fiber and hexon (peptide array); type: binding, rabbits; details: cyclic peptides of fiber protein (clusters 1-7)
Text: Polyclonal antibody ab6982 (Abcam) was generated by immunizing rabbits with purified AdV. It reacts with all capsid proteins of Ad5 including hexon, fiber and penton. It was shown that the antibody neutralizes Ad5 infection in a bioassay at 1000 adenovirus 5 particles/ml, a 50% inactivation of the adenovirus can be achieved at a 1/25,000 dilution of the antibody. In order to identify epitopic regions that could contain peptides for ab6982 paratope binding, the antibody was mapped against the sequences of fiber (NCBI Reference Sequence: AP 000226.1) and hexon protein (GenBank: BAG48782.1). […] The binding signal of this antibody to the array yielded several peptides that were aligned and clustered against the sequence of the protein. The peptide clusters were named cluster1-7 (fiber protein) and clusters8-16 (hexon protein) according to their ranked order of cyclic peptide hits (i.e. cluster contains the strongest binders, cluster2 the second strongest etc.). Below are the aligments of the corresponding peptides that bind to polyclonal antibody ab6982.

[2] = test system: IgG from human donors (anti-AAV antibodies); experiment: Screen for anti-AAV antibodies in human sera, 2452 linear 15-amino-acid AAV peptides on microarrays (Table 1); type: binding; set-up: key to group I: X: the deduplicated aggregate of the respective top 10 peptide hits for each donor was compiled and designated as group I; key to group II: X: the deduplicated aggregate of the respective top 25 peptide hits for each donor was compiled and designated as group II; key to group III: X: the deduplicated aggregate of the respective top 50 peptide hits for each donor was compiled and designated as group III; details: human donor IgG binding to linear 15-amino-acid AAV peptides on microarray, fluorescence; for group II: membership in deduplicated aggregate of top 25 peptide hits for each donor; for group III: membership in deduplicated aggregate of top 50 peptide hits for each donor; for group I: membership in deduplicated aggregate of top 10 peptide hits for each donor
Outline: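 Peptide hits were grouped I to IV by pooling each donor's top 10, 25, 50 or 250 background-corrected fluorescence signals, after deduplication. Signals came from donor IgG, purified on protein G, bound to arrayed 15-residue linear peptides (2452 total) spanning 16 AAV sequences.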

Sequence	antibody binding signal ranking from the microarray experiment [1]	group II [2]	group III [2]	group I [2]
ANPGIAMATHKDDE [SEQ ID NO: 2060]	100	X	X	–
TVQIFADSTYELPY [SEQ ID NO: 2039]	093	X	X	–
LQRGNRQAATADVN (REGION 1..14: note = peptide derived from viral capsid protein) [SEQ ID NO: 2026]	044	X	X	–
PVPADPPTAFNKDK (REGION 1..14: note = peptide derived from viral capsid protein) [SEQ ID NO: 2018]	012	X	X	–
FEKVPFHSMYAHSQ (REGION 1..14: note = peptide derived from viral capsid protein) [SEQ ID NO: 2031]	058	X	X	–
QIFADSSYELPYVM [SEQ ID NO: 2041]	112	X	X	–
GGQMATNNQSLALG [SEQ ID NO: 2021]	020	X	X	–
GESESVPDPQPIGE [SEQ ID NO: 2058]	091	X	X	–
EEEIKTTNPVATES (REGION 1..14: note = peptide derived from viral capsid protein) [SEQ ID NO: 2014]	123	X	X	–
KSTSVDFAVNTEGV [SEQ ID NO: 2025]	039	X	X	–
QQRVSKTSADNNNS (REGION 1..14: note = peptide derived from viral capsid protein) [SEQ ID NO: 2007]	015	X	X	–
QVKEVTTNDGVTTI (REGION 1..14: note = peptide derived from viral capsid protein) [SEQ ID NO: 2048]	173	X	X	–
EFAWPGASSWALNG (REGION 1..14: note = peptide derived from viral capsid protein) [SEQ ID NO: 2015]	126	X	X	–
LSKTANDNNNSNFP (REGION 1..14: note = peptide derived from viral capsid protein) [SEQ ID NO: 1988]	001	X	X	X
KNTPVPADPPTTFN (REGION 1..14: note = peptide derived from viral capsid protein) [SEQ ID NO: 2011]	076	X	X	–
PYLRYHADAEFQER [SEQ ID NO: 2013]	118	X	X	–
AGDNVDYSSVMLTS [SEQ ID NO: 2010]	065	X	X	–
GQTGESESVPDPQP [SEQ ID NO: 2059]	095	X	X	–
STGQVAVQIEWEIE [SEQ ID NO: 2055]	049	X	X	–
QTGDADSVPDPQPL (not fully specified) [SEQ ID NO: 2008]	056	X	X	–
NQTDRNAFYCLEYF [SEQ ID NO: 2036]	072	X	X	–
NPVATEQYGSVSTN (REGION 1..14: note = peptide derived from viral capsid protein) [SEQ ID NO: 2005]	004	X	X	–

Sequence	antibody binding signal ranking from the microarray experiment [1]	group II [2]	group III [2]	group I [2]
TTSGETLNQGNAAT [SEQ ID NO: 2057]	079	X	X	–
RDWQRLINNNWGLR [SEQ ID NO: 2038]	082	X	X	–
MATNNQSLALGETT [SEQ ID NO: 2022]	021	X	X	–
MNPGPAMASHKEGE [SEQ ID NO: 2017]	011	X	X	–
YNLQEIVPGSVWME [SEQ ID NO: 2063]	143	X	X	–
TTSGTTNQSRLLFS (REGION 1..14: note = peptide derived from viral capsid protein) [SEQ ID NO: 1997]	041	X	X	X
HSQSLDRLMNPLLD [SEQ ID NO: 2051]	008	X	X	–
PVPANPPTTFSPAK [SEQ ID NO: 1992]	010	X	X	X
APGKKRPVEHSPVE (REGION 1..14: note = peptide derived from viral capsid protein) [SEQ ID NO: 1999]	061	X	X	X
TVQIFADSSYELPY (REGION 1..14: note = peptide derived from viral capsid protein) [SEQ ID NO: 2043]	136	X	X	–
KRVLEPLGLVESPV [SEQ ID NO: 2012]	085	X	X	–
DIYYQGPIWAKIPH (REGION 1..14: note = peptide derived from viral capsid protein) [SEQ ID NO: 2040]	102	X	X	–
LFNIQVKEVTTNDG (REGION 1..14: note = peptide derived from viral capsid protein) [SEQ ID NO: 2047]	172	X	X	–
HKDDEEKFFPQSGV (REGION 1..14: note = peptide derived from viral capsid protein) [SEQ ID NO: 2002]	150	X	X	–
NEADAAALEHDKAY (REGION 1..14: note = peptide derived from viral capsid protein) [SEQ ID NO: 2004]	163	X	X	–
KKRILEPLGLVEEG [SEQ ID NO: 2034]	066	X	X	–
VMITDEEEIRTTNP (REGION 1..14: note = peptide derived from viral capsid protein) [SEQ ID NO: 1998]	052	X	X	X
PQILIKNTPVPANP (REGION 1..14: note = peptide derived from viral capsid protein) [SEQ ID NO: 2006]	006	X	X	–
EEEIKATNPVATER [SEQ ID NO: 2045]	148	X	X	–
KRLNFEEDTGAGDG [SEQ ID NO: 2053]	022	X	X	–
DIYYQGPIWAKVPH [SEQ ID NO: 2030]	030	X	X	–
PVPADPPTTFNQSK (REGION 1..14: note = peptide derived from viral capsid protein) [SEQ ID NO: 2027]	047	X	X	–
